Results on one compound are retold here after patent US11028113B2, “Cyphomycin, compositions and uses thereof” (Wisconsin Alumni Research Foundation, priority 2018, dated 2021).

Converted amounts (≈) assume the structure as drawn.

Common to all, as to format: cell-based
One test concerns Candida glabrata 4720. The test is described as follows: In vitro MIC susceptibility testing, broth microdilution (CLSI M27-A3). The following applies: Nakaseomyces glabratus; Candida glabrata 4720, Echinocandin resistance phenotype; 50% reduction in growth turbidity at 600 nm; median of replicate assays; read-out: Cyphomycin MIC. On the procedure:
(§1) In vitro MIC susceptibility testing. MICs of Cyphomycin for the Candida isolates were determined using a broth microdilution method in accordance with the guidelines presented in Clinical and Laboratory Standards Institute (CLSI) document M27-A3 for Candida and M38-A2 for Aspergillus^36,38. MIC values of cyphomycin were defined as the lowest concentration at which a prominent decrease in growth turbidity (i.e., 50% reduction in growth determined spectrophotometrically) relative to the turbidity of the compound-free control at 600 nm was observed. Median MIC from replicate assays is reported. Results are shown in Table 1 for cyphomycin activity against drug-resistant fungi.
In general terms: Dilution methods test growth across graded concentrations, often in twofold steps.

In another test the test system is Candida auris B11211. The description is as above. The following applies: Candidozyma auris; Candida auris B11211, Amphotericin B resistance phenotype; 50% reduction in growth turbidity at 600 nm; median of replicate assays; read-out: Cyphomycin MIC. How it is done: as §1
Test [1] has as its system Aspergillus fumigatus 11628. The test is described as follows: In vitro MIC susceptibility testing, broth microdilution (CLSI M38-A2). The following applies: Aspergillus fumigatus 11628, Triazole resistance phenotype; 50% reduction in growth turbidity at 600 nm; median of replicate assays; read-out: Cyphomycin MIC. How it is done: as §1

The MIC is the lowest concentration that inhibits growth of the organism. As for `CCC(OC1CC(C)(O)C(OC2CCC(OC(=O)C(C)C(O)c3ccc4c(c3)C(=O)C=C(C)C4=O)C(C)O2)C(C)O1)C(C)C(O)C(C)C(O)C(C)C1OC(=O)/C=C/C(C)C(O)CC(O)CCCC(O)CCC(C)C(O)C(=O)C2(O)CC(O)CC(CC(O)CC(O)CC(O)CCCC(O)/C=C/C1C)O2` (stereo not drawn) [Cyphomycin, cyphomycin], the results for the minimum inhibitory concentration (MIC) (with Candida glabrata 4720; in the test on Candida auris B11211; in test [1]) were 0.5 µg/mL (≈ 0.342 µM), 4 µg/mL (≈ 2.73 µM) and 0.5 µg/mL (≈ 0.342 µM), respectively.
